Experimental data: patent US20110117008A1, “USE OF AVICINS TO DELIVER THERAPEUTIC AND DIAGNOSTIC AGENTS” (Research Development Foundation, priority 2007, published 2011)
“Also recorded” adds a separate entry of the source. Counter-ions that a name gives are not always drawn. *1 amine or outer side, *2 acyl side, *3 side chain or, on linkers, in order; H or OH if unused. Where a SMILES comes first, the peptide text is derived from it. Bridges are numbered along the chain shown (N, C = ends). Roman numbers before positions name the chains, in order. [ ]: non-standard residue; d: D form. Actinocin(9to1) = Cc1c2oc3c(C)ccc(C(=O)[*:1])c3nc-2c(C(=O)[*:2])c(N)c1=O; NMeV = CN[C@H](C(=O)O)C(C)C; Sar = CNCC(=O)O

Key:
[1] = cited from earlier work
[2] = tested on: full thickness porcine skin; test: Tritiated water transport through full thickness porcine skin, side by side diffusion cells, scintillation counting; assay type: in vitro ADME, pig; settings: tritiated water in PBS, F094 10 mg/ml, Avicin D and Avicin G 1 mg/ml, 24 hours
Method: In addition, it was desired to access if the known enhancer N-Methyl Pyrrolidinone (NMP) might modulate skin's water permeability when codelivered. […] Each donor compartment solution was loaded with 5 μCi/ml (1 μg/ml) of tritiated (^3H) water. Receiver compartments were sampled at 0.5, 1, 2, 3, 6, 12, 18 and 24 hours.
Likewise, Avicin D and Avicin G solutions contained 1 mg/ml of Avicin D and G respectively, along with PBS and tritiated water (1 μg/ml, 5 μCi/ml).
(§1) Upon receipt, concentrated stock solutions were made in DMSO.

[3] = tested on: full thickness porcine skin; test: 3H-estradiol transport and percutaneous absorption, full thickness porcine skin, side by side diffusion cells; assay type: in vitro ADME, pig; settings: 3H-estradiol in PBS; F094 5-20 mg/ml, Avicin D and Avicin G 1 mg/ml; 24 hours
Method: Each solution was loaded with 5 μCi/ml of 3H-Estradiol (Amersham TRK 322). Receiver compartments were sampled at 0.5 1, 2, 3, 6, 12, 18 and 24 hours.
Likewise, Avicin D and Avicin G solutions contained 1 mg/ml of Avicin D and G respectively, along with PBS and 3H-estradiol (5 μCi/ml).
as §1

full thickness pig skin = test: Water soluble anesthetic transport in full thickness pig skin, HPLC quantification; settings: for Maximum % Enhancement over control: highest enhancement of the anesthetic's permeability with F094
Text: (§2) HPLC was used to quantify delivered mass, and to calculate permabilities in lag times. Error bar represents mean+/−standard deviation.
as §2

[4] = Partition coefficient of anesthetics between octanol and water, HPLC; assay type: physicochemical; settings: for Partition coefficient (octanol/water): as listed in Table 4; for Partition Coefficient: octanol/water
[5] = adults with previously untreated chronic myelogenous leukemia; cited from earlier work
[6] = cited from earlier work; remark: listed apart in the source

In the case of `Cc1c2oc3c(C)ccc(C(=O)N[C@@H]4C(=O)N[C@H](C(C)C)C(=O)N5CCC[C@H]5C(=O)N(C)CC(=O)N(C)[C@@H](C(C)C)C(=O)O[C@@H]4C)c3nc-2c(C(=O)N[C@@H]2C(=O)N[C@H](C(C)C)C(=O)N3CCC[C@H]3C(=O)N(C)CC(=O)N(C)[C@@H](C(C)C)C(=O)O[C@@H]2C)c(N)c1=O` [Actinomycin D] (I: T[dV]P[Sar][NMeV] / II: T[dV]P[Sar][NMeV]; ester I:1-I:C, II:1-II:C; linker I:N-II:N via Actinocin(9to1)), the “share of the dose excreted intact into the bile” value ([1]; in vivo) is given as “Half of the dose”.
For `C=C[C@](C)(O)CC/C=C(\CO)C(=O)O[C@H]1[C@H](O)[C@@H](O)[C@H](O[C@@](C)(C=C)CC/C=C(\CO)C(=O)O[C@H]2C[C@]3(C(=O)O[C@@H]4O[C@H](CO)[C@@H](O)[C@H](O)[C@H]4O[C@@H]4O[C@@H](C)[C@H](O[C@@H]5O[C@@H](CO)[C@H](O)[C@H]5O)[C@@H](O[C@@H]5O[C@H](CO)[C@@H](O)[C@H](O)[C@H]5O)[C@H]4O)[C@H](O)C[C@]4(C)C(=CC[C@@H]5[C@@]6(C)CC[C@H](O[C@@H]7O[C@H](CO[C@@H]8O[C@H](C)[C@H](O)[C@H](O)[C@H]8O[C@@H]8OC[C@@H](O)[C@H](O)[C@H]8O)[C@@H](O)[C@H](O)[C@H]7NC(C)=O)C(C)(C)[C@@H]6CC[C@]54C)[C@@H]3CC2(C)C)O[C@@H]1C` [Avicin D], the “effect on water transport / water permeability of skin” value [2] was “potent enhancer of water and estradiol permeability through the skin; also recorded: increases water permeability of skin as compared to Avicin G”, the “effect on water transport / water permeability of skin” value ([2]; listed as avicin D) was “differentially enhance water permeability” and the “effect on estradiol transport / estradiol permeability of skin” value [3] was “potent enhancer of water and estradiol permeability through the skin; also recorded: increase estradiol permeability of skin as compared to Avicin G”.
In the case of `C=C[C@](C)(O)CC/C=C(\C)C(=O)O[C@H]1[C@H](O)[C@@H](O)[C@H](O[C@@](C)(C=C)CC/C=C(\CO)C(=O)O[C@H]2C[C@]3(C(=O)O[C@@H]4O[C@H](CO)[C@@H](O)[C@H](O)[C@H]4O[C@@H]4O[C@@H](C)[C@H](O[C@@H]5O[C@@H](CO)[C@H](O)[C@H]5O)[C@@H](O[C@@H]5O[C@H](CO)[C@@H](O)[C@H](O)[C@H]5O)[C@H]4O)[C@H](O)C[C@]4(C)C(=CC[C@@H]5[C@@]6(C)CC[C@H](O[C@@H]7O[C@H](CO[C@@H]8O[C@H](C)[C@H](O)[C@H](O)[C@H]8O[C@@H]8OC[C@@H](O)[C@H](O)[C@H]8O)[C@@H](O)[C@H](O)[C@H]7NC(C)=O)C(C)(C)[C@@H]6CC[C@]54C)[C@@H]3CC2(C)C)O[C@@H]1C` [Avicin G], the “effect on water transport / water permeability of skin” value [2] is reported as “inhibits water transport in comparison to Avicin D; also recorded: differentially enhance water permeability”.
With `CCCCN1CCCCC1C(=O)Nc1c(C)cccc1C` (stereo not drawn) [Bupivacaine HCl] the Permeability (full thickness pig skin) was 0.71 ± 0.05 × 10^−3 (cm/hr), the Lag time (full thickness pig skin; female, pig) was 10.8 ± 1.1 h and the “Maximum % Enhancement over control” value (full thickness pig skin) was 347%. The “Partition coefficient (octanol/water)” value [4] was 1.7, the “Partition Coefficient” value ([4]; 0 mg/ml F094) was 3.3 ± 0.4 and the “Partition Coefficient” value ([4]; 1 mg/ml F094) was 3.6 ± 0.5. The “Partition Coefficient” value ([4]; 5 mg/ml F094) was 4.1 ± 0.3 and the “Partition Coefficient” value ([4]; 10 mg/ml F094) was 3.5 ± 0.8.
For `CS(=O)(=O)OCCCCOS(C)(=O)=O` [Busulfan, 1,4-butanediol dimethanesulfonate], the “hematologic remission with regression or stabilization of organomegaly” value [5] is given as “Approximately 90%”.
In the case of `O=C(O)CCCc1ccc(N(CCCl)CCCl)cc1` [Chlorambucil, 4-[bis(2-chlorethyl)amino]benzenebutanoic acid], the “oral / gastrointestinal absorption” value ([1]; in vivo, po) is given as “rapidly and completely absorbed from the gastrointestinal tract” and the terminal half-life ([1]; plasma) is given as ~1.5 h.
In the case of `N.N.[Cl][Pt][Cl]` [Cisplatin], the “oral / gastrointestinal absorption” value ([1]; in vivo, po) is given as “not absorbed orally”.
For `COc1cccc2c1C(=O)c1c(O)c3c(c(O)c1C2=O)C[C@@](O)(C(C)=O)C[C@@H]3O[C@H]1C[C@H](N)[C@H](O)[C@H](C)O1` [Daunorubicin], the “oral / gastrointestinal absorption” value ([1]; in vivo, po) is given as “Oral absorption is poor”.
In the case of `COc1cccc2c1C(=O)c1c(O)c3c(c(O)c1C2=O)C[C@@](O)(C(=O)CO)C[C@@H]3O[C@H]1C[C@H](N)[C@H](O)[C@H](C)O1` [Doxorubicin, 5,12-Naphthacenedione, (8s-cis)-10-[(3-amino-2,3,6-trideoxy-a-L-lyxo-hexopyranosyl)oxy]-7,8,9,10-tetrahydro-6,8,11-trihydroxy-8-(hydroxyacetyl)-1-methoxy-hydrochloride], the “oral / gastrointestinal absorption” value ([1]; in vivo, po) is listed as “absorbed poorly”.
In the case of `O=NN(CCCl)C(=O)NC1CCCCC1` [Lomustine, 1-(2-chloro-ethyl)-3-cyclohexyl-1 nitrosourea], the “radioactivity excreted in the form of degradation products” value ([1]; in vivo, po) is listed as “about half”.
With `CCCNC(C)C(=O)Nc1ccccc1C` (stereo not drawn) [Prilocaine HCl] the Permeability (full thickness pig skin) was 0.46 ± 0.11 × 10^−3 (cm/hr), the “Maximum % Enhancement over control” value (full thickness pig skin) was 228% and the “Partition coefficient (octanol/water)” value [4] was 0.43. For the same molecule, the “Partition Coefficient” value ([4]; 0 mg/ml F094) was 0.47 ± 0.03, the “Partition Coefficient” value ([4]; 1 mg/ml F094) was 0.43 ± 0.02 and the “Partition Coefficient” value ([4]; 5 mg/ml F094) was 0.51 ± 0.02. For the same molecule, the “Partition Coefficient” value ([4]; 10 mg/ml F094) was 0.50 ± 0.01.
In the case of `CC[C@@]1(O)C(=O)OCc2c1cc1n(c2=O)Cc2cc3ccccc3nc2-1` [camptothecin, Camptothecin], the solubility in water [6] is given as “poor water-solubility” and the storage stability ([6]; stored at 2-8° C. in a dry, airtight, light-resistant environment) is given as “stable for at least two years”.
For `CC[C@]1(O)C[C@@H]2CN(CCc3c([nH]c4ccccc34)[C@@](C(=O)OC)(c3cc4c(cc3OC)N(C)[C@H]3[C@@](O)(C(=O)OC)[C@H](OC(C)=O)[C@]5(CC)C=CCN6CC[C@]43[C@@H]65)C2)C1` [vinblastine, Vinblastine], the “plasma half-life after distribution (first)” value ([1]; after intravenous injection) is given as “approximately 1 hours”, the “plasma half-life after distribution (second)” value ([1]; after intravenous injection) is given as ~72000 s and the “oral / gastrointestinal absorption” value ([1]; in vivo, po) is given as “Unpredictable absorption”.
For `CC[C@]1(O)C[C@H]2CN(CCc3c([nH]c4ccccc34)[C@@](C(=O)OC)(c3cc4c(cc3OC)N(C=O)[C@H]3[C@@](O)(C(=O)OC)[C@H](OC(C)=O)[C@]5(CC)C=CCN6CC[C@]43[C@@H]65)C2)C1` [vincristine, Vincristine], the “oral / gastrointestinal absorption” value ([1]; in vivo, po) is given as “Unpredictable absorption”.
